Measurements taken from publication PMC8016481, “Tachykinin signaling inhibits task-specific behavioral responsiveness in honeybee workers” (eLife, 2021).
“And” between values parts separate entries of the source, which are not always exact repeats. Identical values can stand only once. Like-named read-outs stand apart in the source and are kept apart here. Ends that are not written are not given here.

What was measured:
[1] = system: TRP2-induced ERK1/2 phosphorylation; assay: Effect of inhibitors on TRP2-induced ERK1/2 phosphorylation, HEK293 cells; type: cell-based, Homo sapiens
[2] = system: TRP2-induced ERK1/2 phosphorylation; assay: Effect of inhibitors on TRP2-induced ERK1/2 phosphorylation, Sf21 cells; type: cell-based, Spodoptera frugiperda
[3] = system: TRP2-mediated cAMP accumulation; assay: Effect of PTX, CTX, YM-254890 and H89 on TRP2-mediated cAMP accumulation, HEK293 cells expressing TRPR; type: cell-based, Homo sapiens
honeybee TRPR [4] = assay: Competitive binding of TRPs to TRPR in HEK293 cells (displacement of TAMRA-TRP2/TAMRA-TRP3); set-up: species or system Apis mellifera; conditions: HEK293
honeybee TRPR [5] = assay: Competitive binding of TRPs to TRPR in Sf21 cells (displacement of TAMRA-TRP2/TAMRA-TRP3); set-up: species or system Apis mellifera
TRPR [6] = system: TRPR
TRPR [7] = system: TRPR; remark: listed apart in the source
TRPR [8] = system: TRPR; remark: listed apart in the source
[9] = molecular target: honeybee tachykinin-related peptide receptor (FLAG-TRPR) expressed in HEK293 cells (Apis mellifera)
[10] = molecular target: honeybee tachykinin-related peptide receptor (FLAG-TRPR) expressed in Sf21 cells (Apis mellifera)
[11] = molecular target: honeybee tachykinin-related peptide receptor (FLAG-TRPR) expressed in HEK293 cells (Apis mellifera); remark: listed apart in the source
[12] = HEK293, 2 hr pretreatment, then TRP2 (10 nM or 1 μM) for 10 min
[13] = Sf21, 2 hr pretreatment, then TRP2 (10 nM or 1 μM) for 10 min

Sequence of honeybee tachykinin-related peptide receptor (FLAG-TRPR) expressed in HEK293 cells (Apis mellifera) (A0ACM8RFV8 entry or part of it): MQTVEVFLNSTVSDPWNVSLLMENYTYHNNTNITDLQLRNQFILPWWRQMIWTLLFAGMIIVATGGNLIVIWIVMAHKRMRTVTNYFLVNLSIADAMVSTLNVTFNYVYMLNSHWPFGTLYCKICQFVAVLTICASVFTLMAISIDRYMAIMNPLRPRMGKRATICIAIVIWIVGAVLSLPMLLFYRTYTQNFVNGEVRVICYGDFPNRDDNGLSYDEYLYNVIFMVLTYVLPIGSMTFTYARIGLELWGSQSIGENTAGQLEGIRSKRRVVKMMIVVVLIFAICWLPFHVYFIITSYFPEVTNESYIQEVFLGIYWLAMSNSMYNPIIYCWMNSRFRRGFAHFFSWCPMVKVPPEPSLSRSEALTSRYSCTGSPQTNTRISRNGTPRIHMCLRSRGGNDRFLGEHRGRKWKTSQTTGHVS
Sequence of honeybee tachykinin-related peptide receptor (FLAG-TRPR) expressed in Sf21 cells (Apis mellifera) (A0ACM8RFV8 entry or part of it): as above

COc1ccc2c(c1)c(C1=C(c3c[nH]c4ccccc34)C(=O)NC1=O)cn2CCCN(C)C [Go6983] was tested, and the “inhibition of TRP/TRPR-mediated ERK activation” value [1, 12] was “significant inhibition” and the “inhibition of TRP/TRPR-mediated ERK activation” value [2, 13] was “significant inhibition”.

Cl.Cl.O=S(=O)(NCCNC/C=C/c1ccc(Br)cc1)c1cccc2cnccc12 [H89] showed a cAMP accumulation ([3]; Suppl.3B, with TRP2, replicate 1) of 18.636, a cAMP accumulation ([3]; Suppl.3B, with TRP2, replicate 2) of 15.003 and a cAMP accumulation ([3]; Suppl.3B, with TRP2, replicate 3) of 13.325. It also gave a cAMP accumulation ([3]; Suppl.3B, with ddH2O (no TRP2), replicate 1) of 3.551, a cAMP accumulation ([3]; Suppl.3B, with ddH2O (no TRP2), replicate 2) of 2.309 and a cAMP accumulation ([3]; Suppl.3B, with ddH2O (no TRP2), replicate 3) of 2.639. The “inhibition of TRP/TRPR-mediated ERK activation” value [1, 12] was “significant inhibition” and the “inhibition of TRP/TRPR-mediated ERK activation” value [2, 13] was “significant inhibition”.

In the case of N#CC(=C(/N)Sc1ccccc1N)/C(C#N)=C(/N)Sc1ccccc1N [U0126], the “inhibition of TRP/TRPR-mediated ERK activation” value [1, 12] is reported as “significant inhibition” and the “inhibition of TRP/TRPR-mediated ERK activation” value [2, 13] is reported as “significant inhibition”.

APMGFQGMRa [TRP3] was tested, and the “competitive binding (residual TAMRA-TRP binding)” value (honeybee TRPR [4]; Log (M) -4, replicate 1) was 5.1560, the “competitive binding (residual TAMRA-TRP binding)” value (honeybee TRPR [4]; Log (M) -4, replicate 2) was 4.9306 and the “competitive binding (residual TAMRA-TRP binding)” value (honeybee TRPR [4]; Log (M) -4, replicate 3) was 5.6578. For the same molecule, the “competitive binding (residual TAMRA-TRP binding)” value (honeybee TRPR [4]; Log (M) -5, replicate 1) was 9.5134, the “competitive binding (residual TAMRA-TRP binding)” value (honeybee TRPR [4]; Log (M) -5, replicate 2) was 5.2301 and the “competitive binding (residual TAMRA-TRP binding)” value (honeybee TRPR [4]; Log (M) -5, replicate 3) was 6.7532. The “competitive binding (residual TAMRA-TRP binding)” value (honeybee TRPR [4]; Log (M) -6, replicate 1) was 19.3191, the “competitive binding (residual TAMRA-TRP binding)” value (honeybee TRPR [4]; Log (M) -6, replicate 2) was 12.3643 and the “competitive binding (residual TAMRA-TRP binding)” value (honeybee TRPR [4]; Log (M) -6, replicate 3) was 13.3614. For the same molecule, the “competitive binding (residual TAMRA-TRP binding)” value (honeybee TRPR [4]; Log (M) -7, replicate 1) was 23.7138, the “competitive binding (residual TAMRA-TRP binding)” value (honeybee TRPR [4]; Log (M) -7, replicate 2) was 20.6042 and the “competitive binding (residual TAMRA-TRP binding)” value (honeybee TRPR [4]; Log (M) -7, replicate 3) was 26.4738. The “competitive binding (residual TAMRA-TRP binding)” value (honeybee TRPR [4]; Log (M) -8, replicate 1) was 49.0125, the “competitive binding (residual TAMRA-TRP binding)” value (honeybee TRPR [4]; Log (M) -8, replicate 2) was 48.4899 and the “competitive binding (residual TAMRA-TRP binding)” value (honeybee TRPR [4]; Log (M) -8, replicate 3) was 40.9813. For the same molecule, the “competitive binding (residual TAMRA-TRP binding)” value (honeybee TRPR [4]; Log (M) -9, replicate 1) was 72.5758, the “competitive binding (residual TAMRA-TRP binding)” value (honeybee TRPR [4]; Log (M) -9, replicate 2) was 73.4731 and the “competitive binding (residual TAMRA-TRP binding)” value (honeybee TRPR [4]; Log (M) -9, replicate 3) was 66.5477. The “competitive binding (residual TAMRA-TRP binding)” value (honeybee TRPR [4]; Log (M) -10, replicate 1) was 84.1720, the “competitive binding (residual TAMRA-TRP binding)” value (honeybee TRPR [4]; Log (M) -10, replicate 2) was 90.8395 and the “competitive binding (residual TAMRA-TRP binding)” value (honeybee TRPR [4]; Log (M) -10, replicate 3) was 88.1290. For the same molecule, the “competitive binding (residual TAMRA-TRP binding)” value (honeybee TRPR [4]; Log (M) -11, replicate 1) was 92.0860, the “competitive binding (residual TAMRA-TRP binding)” value (honeybee TRPR [4]; Log (M) -11, replicate 2) was 97.3869 and the “competitive binding (residual TAMRA-TRP binding)” value (honeybee TRPR [4]; Log (M) -11, replicate 3) was 95.5950. The “competitive binding (residual TAMRA-TRP binding)” value (honeybee TRPR [4]; Log (M) -12, replicate 1) was 93.1313, the “competitive binding (residual TAMRA-TRP binding)” value (honeybee TRPR [4]; Log (M) -12, replicate 2) was 100.0000 and the “competitive binding (residual TAMRA-TRP binding)” value (honeybee TRPR [4]; Log (M) -12, replicate 3) was 92.9969. For the same molecule, the competitive binding (honeybee TRPR [5]; Log (M) -4, replicate 1) was 26.3879, the competitive binding (honeybee TRPR [5]; Log (M) -4, replicate 2) was 30.2236 and the competitive binding (honeybee TRPR [5]; Log (M) -4, replicate 3) was 35.2235. The competitive binding (honeybee TRPR [5]; Log (M) -5, replicate 1) was 39.1647, the competitive binding (honeybee TRPR [5]; Log (M) -5, replicate 2) was 34.4531 and the competitive binding (honeybee TRPR [5]; Log (M) -5, replicate 3) was 41.6285. The competitive binding (honeybee TRPR [5]; Log (M) -6, replicate 1) was 40.2510, the competitive binding (honeybee TRPR [5]; Log (M) -6, replicate 2) was 48.0008 and the competitive binding (honeybee TRPR [5]; Log (M) -6, replicate 3) was 38.3975. It also gave a competitive binding (honeybee TRPR [5]; Log (M) -7, replicate 1) of 53.7851, a competitive binding (honeybee TRPR [5]; Log (M) -7, replicate 2) of 58.0646 and a competitive binding (honeybee TRPR [5]; Log (M) -7, replicate 3) of 56.8212. It also gave a competitive binding (honeybee TRPR [5]; Log (M) -8, replicate 1) of 73.9138, a competitive binding (honeybee TRPR [5]; Log (M) -8, replicate 2) of 70.3389 and a competitive binding (honeybee TRPR [5]; Log (M) -8, replicate 3) of 76.0795. The competitive binding (honeybee TRPR [5]; Log (M) -9, replicate 1) was 79.8334, the competitive binding (honeybee TRPR [5]; Log (M) -9, replicate 2) was 84.1204 and the competitive binding (honeybee TRPR [5]; Log (M) -9, replicate 3) was 84.2025. It also gave a competitive binding (honeybee TRPR [5]; Log (M) -10, replicate 1) of 93.5892, a competitive binding (honeybee TRPR [5]; Log (M) -10, replicate 2) of 92.3234 and a competitive binding (honeybee TRPR [5]; Log (M) -10, replicate 3) of 96.9419. For the same molecule, the competitive binding (honeybee TRPR [5]; Log (M) -11, replicate 1) was 93.4444, the competitive binding (honeybee TRPR [5]; Log (M) -11, replicate 2) was 100.0000 and the competitive binding (honeybee TRPR [5]; Log (M) -11, replicate 3) was 96.2965. The competitive binding (honeybee TRPR [5]; Log (M) -12, replicate 1) was 95.2946, the competitive binding (honeybee TRPR [5]; Log (M) -12, replicate 2) was 98.1256 and the competitive binding (honeybee TRPR [5]; Log (M) -12, replicate 3) was 92.1545. For the same molecule, the “increase of cAMP levels” value (TRPR [6]) was “more than 10 fold” and the “intracellular Ca2+ levels” value (TRPR [7]) was “rose sharply”.

cholera toxin [CTX] was tested, and the cAMP accumulation [3] was 18.981 and 16.723 and 16.035 and 22.197 and 20.493 and 23.072.

For corazonin [CRZ, reference compound], the “cAMP accumulation” value (TRPR [6]) was “did not induce any detectable cAMP accumulation” and the “cAMP accumulation” value (TRPR [8]) was “did not induce any detectable cAMP accumulation”.

With pertussis toxin [PTX] the “inhibition of TRP/TRPR-mediated ERK activation” value [1] was “had no effect” and the “inhibition of TRP/TRPR-mediated ERK activation” value [2] was “had no effect”.

In the case of “pigment-dispersing hormone [PDH, reference compound]”, the “cAMP accumulation” value (TRPR [6]) is reported as “did not induce any detectable cAMP accumulation” and the “cAMP accumulation” value (TRPR [8]) is reported as “did not induce any detectable cAMP accumulation”.

In the case of “short neuropeptide F [SNF, reference compound]”, the “cAMP accumulation” value (TRPR [6]) is reported as “did not induce any detectable cAMP accumulation” and the “cAMP accumulation” value (TRPR [8]) is reported as “did not induce any detectable cAMP accumulation”.

B1: tachykinin-related peptide 2 (TRP2), unlabeled synthetic peptide (peptide)
peptide: ALMGFQGVR
modifications: ends and bridges not checked
For B1, the EC50 of ERK1/2 phosphorylation (Western blot) in HEK293 cells expressing TRPR, TRP2 from 0.1 pM to 1 μM for 10 min [9] was 68 nM, the EC50 of ERK1/2 phosphorylation (Western blot) in Sf21 cells expressing TRPR, TRP2 from 0.1 pM to 1 μM for 10 min [10] was 1.68 nM and the luciferase activity (pCRE-Luc reporter of cAMP) of HEK293 cells co-transfected with pFLAG-TRPR, 1 μM TRP2, against vehicle vector [11] was over 10 fold.

B2: tachykinin-related peptide 3 (TRP3), unlabeled synthetic peptide (peptide)
peptide: APMGFQGMR-NH2
Molecule B2 has a luciferase activity (pCRE-Luc reporter of cAMP) of HEK293 cells co-transfected with pFLAG-TRPR, 1 μM TRP3, against vehicle vector [11] of over 10 fold.
